Test results reported in US20080318326A1 (priority 2005, published 2008).
Peptide text beside a SMILES is read from it.

Experiment: Alamethicin channel currents across PTFE-supported bilayer lipid membrane
Format: biochemical
Details: alamethicin 100 ng/ml on both sides of PTFE support matrix
Method: Alamethicin is a peptide that spontaneously inserts itself into a bilayer lipid membrane. Molecules of alamethicin can diffuse within the plane of the membrane and may associate with other alamethicin molecules to form a channel for the passage of small ions when a voltage is applied across a bilayer lipid membrane.
Given the above, alamethicin was used as an indicator of bilayer lipid membrane formation success.
In this example, alamethicin is dissolved in 100% ethanol (5 μg/ml) and stored at 4° C. After the bilayer lipid membrane is formed, alamethicin is added to solutions on both sides of the PTFE support matrix 11 to a final concentration of 100 ng/ml. Electrochemical measurements were then carried out using a two electrode system. Silver/silver chloride wires were used as the working and reference electrodes and based on measurements taken, channels were observed after 10 minutes.
The nature of the electrical current caused by the flow of ions is understood to be dependent on: • 1. The concentration of ions bathing the bilayer lipid membrane, • 2. The voltage applied and, • 3. The concentration of alamethicin.

## CC(=O)NC(C)(C)C(=O)N1CCC[C@H]1C(=O)NC(C)(C)C(=O)N[C@@H](C)C(=O)NC(C)(C)C(=O)N[C@@H](C)C(=O)N[C@@H](CCC(N)=O)C(=O)NC(C)(C)C(=O)N[C@H](C(=O)NC(C)(C)C(=O)NCC(=O)N[C@@H](CC(C)C)C(=O)NC(C)(C)C(=O)N1CCC[C@H]1C(=O)N[C@H](C(=O)NC(C)(C)C(=O)NC(C)(C)C(=O)N[C@@H](CCC(=O)O)C(=O)N[C@@H](CCC(N)=O)C(=O)N[C@H](CO)Cc1ccccc1)C(C)C)C(C)C [alamethicin] (HELM PEPTIDE1{[ac].[Aib].P.[Aib].A.[Aib].A.Q.[Aib].V.[Aib].G.L.[Aib].P.V.[Aib].[Aib].E.Q.[OC[C@H](Cc1ccccc1)N[*:1]]}$$$$V2.0)
  time after which channels were observed: 10 min
